Patent US4447608A, “Anti-cancer quinazoline derivatives” (priority 1979, dated 1984)
“Also recorded” adds a separate entry of the source. Read-outs that look alike come from different tables or passages of the source.

Experiments:
[1] = system: transport of tritiated folic acid into L1210 cells; experiment: Inhibition of transport of tritiated folic acid into L1210 cells; type: cell-based, mouse
Experimental: (§1) The compounds of Example 2 were evaluated in vitro as inhibitors as TS and cell growth and in vivo against the L1210 tumour. Since methotrexate (MTX) resistance is an important problem in cancer therapy, the compounds of the present invention were also investigated with this in mind. The cross-resistance of the MTX resistant cell line L1210/R71, which is known to have elevated DHFR but normal MTX transport, was measured in culture, and the ability of the compounds of the invention to compete with labelled MTX or folic acid for transport into L1210 cells was also assessed.
(§2) Transport studies were conducted on compound CB 3717 as representative of the invention compounds by incubating cells in the presence of a labelled substance, removing aliquots, separating and washing the cells by centrifugation and counting the pellet.

L1210 cells [2] = experiment: Growth inhibition of L1210 cells in suspension culture, 48 h count; type: cell-based; conditions: Mus musculus
Experimental: Cells were diluted to 10^5 /ml and additions (diluted in medium and sterilised in Millipore filtration) made prior to starting each incubation. Cell counts were performed after 24 and 48 hours using an improved Neubauer haemocytometer.

[3] = system: transport of tritiated methotrexate into L1210 cells; experiment: Inhibition of transport of tritiated methotrexate into L1210 cells; type: cell-based, mouse
Experimental: as §1, §2

L1210 tumour = experiment: Treatment of L1210 ascitic tumour-bearing mice, survival; type: in vivo, mice (female C57B1×DBA2 F1 hybrid); conditions: for long term survivors (>120 days): FIG. 3
Experimental: (§3) The L1210 tumour was carried routinely in DBA2 mice. For experiments 5×10^4 cells were implanted i.p. into female C57B1×DBA2 F1 hybrid mice 3 days prior to treatment, giving an established tumour of about 2×10^6 cells at the time of treatment.
(Animals were injected with 20 mM NaHCO3 buffer 0.4 ml daily×5 days.
As the injection solutions could only be neutralised to pH 8.5 while preserving solubility, the appropriate controls were injected with bicarbonate at pH 8.5. […] For comparative purposes further groups of animals were treated with various doses of methotrexate, given on the same schedule.

L1210 cells [4] = experiment: Reversal of toxicity to L1210 cells in culture by folinic acid; type: cell-based, mouse; conditions: folinic acid up to 100 μM; FIG. 1: 20 μM CB 3717
Experimental: (§4) L1210 and L1210:R71 cells were grown in continuous suspension culture in RPMI 1640 medium containing 10% horse serum (Flow Laboratories, Irvine, Scotland; UK). Cells were diluted to 10^5 /ml and additions (diluted in medium and sterilised in Millipore filtration) made prior to starting each incubation. Cell counts were performed after 24 and 48 hours using an improved Neubauer haemocytometer.

L1210 cells [5] = experiment: Reversal of toxicity to L1210 cells in culture by thymidine; type: cell-based, mouse
Experimental: as §4

[6] = Toxicity and body weight change in treated L1210 tumour-bearing mice; type: in vivo, mice (female C57B1×DBA2 F1 hybrid)
Experimental: as §3

L1210:R71 cells = experiment: Growth inhibition of methotrexate-resistant L1210:R71 cells in suspension culture, 48 h count; type: cell-based, mouse; conditions: relative to L1210
Experimental: The compounds of Example 2 were evaluated in vitro as inhibitors as TS and cell growth and in vivo against the L1210 tumour. Since methotrexate (MTX) resistance is an important problem in cancer therapy, the compounds of the present invention were also investigated with this in mind.
as §4

[7] = majority of cell types; cited from earlier work
[8] = 8 mg/kg i.p., daily × 5, 5 animals
[9] = 16 mg/kg i.p., daily × 5, 5 animals, first 16 mg/kg line
[10] = 16 mg/kg i.p., daily × 5, 5 animals, second 16 mg/kg line
[11] = 32 mg/kg i.p., daily × 5, 5 animals
[12] = 64 mg/kg i.p., daily × 5, 5 animals
[13] = 80 mg/kg i.p., single dose, 5 animals
[14] = 128 mg/kg i.p., daily × 5, 5 animals
[15] = 160 mg/kg i.p., single dose, 5 animals
[16] = methotrexate 3 mg/kg (optimal dose), daily×5, 10 animals

Q: Which results are given for `C#CCN(Cc1ccc2nc(N)nc(O)c2c1)c1ccc(C(=O)N[C@@H](CCC(=O)O)C(=O)O)cc1` [CB 3717, N-(4-(N-((2-amino-4-hydroxy-6-quinazolinyl)methyl)prop-2-ynylamino)benzoyl)-L-glutamic acid]?
A: apparent transport by the pathway for folic acid [1]: also by that for folic acid; effect on transport of tritiated folic acid ([1]; 4 μM folic acid, FIG. 2): inhibited; also recorded: dose-dependent reduction; IC50 (L1210 cells [2]; L1210, 48 h, second results table, read-out: ID50 L1210 (Tissue culture)): 6.5 to 8.5 µM; IC50 (L1210 cells [2]; L1210, Table 2, 48 hour count reduced to 50% of control, read-out: ID50 L1210): 5 µM; apparent transport by the pathway used for methotrexate [3]: can apparently be transported by the pathway used for methotrexate; effect on transport of tritiated methotrexate ([3]; 4 μM MTX, FIG. 2): inhibited; also recorded: dose-dependent reduction; % Increase in mean survival time (L1210 tumour; [8]): 8%; Long term survivors (>200 days) (L1210 tumour; [8]): 0; % Increase in mean survival time (L1210 tumour; [9]): 13%; Long term survivors (>200 days) (L1210 tumour; [9]): 0; % Increase in mean survival time (L1210 tumour; [10]): 29%; Long term survivors (>200 days) (L1210 tumour; [10]): 0; % Increase in mean survival time (L1210 tumour; [11]): 62%; Long term survivors (>200 days) (L1210 tumour; [11]): 0; % Increase in mean survival time (L1210 tumour; [12]): 72%; Long term survivors (>200 days) (L1210 tumour; [12]): 0; % Increase in mean survival time (L1210 tumour; [13]): 14%; Long term survivors (>200 days) (L1210 tumour; [13]): 0; Long term survivors (>200 days) (L1210 tumour; 125 mg/kg i.p., daily × 5, 10 animals): 9; % Increase in mean survival time (L1210 tumour; 125 mg/kg i.p., daily × 5, 10 animals, see FIG. 3): > 1200%; long term survivors (>120 days) (L1210 tumour; 125 mg/kg, 5 daily doses): 9 out of 10; % Increase in mean survival time (L1210 tumour; [14]): > 1200%; Long term survivors (>200 days) (L1210 tumour; [14]): 4; % Increase in mean survival time (L1210 tumour; [15]): 32%; Long term survivors (>200 days) (L1210 tumour; [15]): 0; Long term survivors (>200 days) (L1210 tumour; 200 mg/kg i.p., daily × 5, 10 animals): 9; % Increase in mean survival time (L1210 tumour; 200 mg/kg i.p., daily × 5, 10 animals, see FIG. 3): > 1200%; long term survivors (>120 days) (L1210 tumour; 200 mg/kg, 5 daily doses): 9 out of 10; increase in mean survival time with 5 daily dose schedule (L1210 tumour; 5 daily doses, see Table 3): dose related; difference in survival of CB 3717 and MTX treated animals, p (log rank test) (L1210 tumour; CB 3717 125 and 200 mg/kg vs MTX 3 mg/kg, daily×5): < 0.001; reversal of toxicity by folinic acid (L1210 cells [4]): only partial reversal; also recorded: does not reverse the effect; Reversal by thymidine (in culture) (L1210 cells [5]; second results table, L1210): yes; reversal of toxicity by co-incubation with thymidine (L1210 cells [5]; thymidine 10 μM, FIG. 1: 20 μM CB 3717): Reversal of the toxicity; also recorded: virtually complete protection; body weight change / signs of toxicity ([6]; 5 daily doses, 125 and 200 mg/kg/day, groups of 10 mice, FIG. 4): did not lose a significant amount of weight or show other signs of toxicity; toxicity of single doses ([6]; single doses up to 160 mg/Kg i.p.): not toxic

Q: What does the source list for `CN(Cc1cnc2nc(N)nc(N)c2n1)c1ccc(C(=O)N[C@@H](CCC(=O)O)C(=O)O)cc1` [methotrexate, reference compound]?
A: increase in median lifespan (L1210 tumour; [16]): 71%; long term survivors (L1210 tumour; [16]): 2/10; resistance of L1210:R71 to MTX (L1210:R71 cells): about 600 fold; metabolic degradation [7]: does not undergo significant metabolic degradation
